The results in this text go back to doi:10.1101/2025.08.24.671973v1 (biorxiv, 2025).

Structures are written as SMILES.

In test [1] the target is CHI3L1/galectin-3 interaction (hCHI3L1-His with galectin-3-GST) (Homo sapiens, UniProt P36222). Description: AlphaLISA, inhibition of CHI3L1/galectin-3 interaction. It is filed as binding. (In general: In Alpha technology, singlet oxygen from a donor bead excites a nearby acceptor bead.)
Test [2] addresses CHI3L1 (hCHI3L1-His) (Homo sapiens, UniProt P36222). Kind of test: SPR. It is filed as binding.

Chain of CHI3L1/galectin-3 interaction (hCHI3L1-His with galectin-3-GST) (P36222 22-383): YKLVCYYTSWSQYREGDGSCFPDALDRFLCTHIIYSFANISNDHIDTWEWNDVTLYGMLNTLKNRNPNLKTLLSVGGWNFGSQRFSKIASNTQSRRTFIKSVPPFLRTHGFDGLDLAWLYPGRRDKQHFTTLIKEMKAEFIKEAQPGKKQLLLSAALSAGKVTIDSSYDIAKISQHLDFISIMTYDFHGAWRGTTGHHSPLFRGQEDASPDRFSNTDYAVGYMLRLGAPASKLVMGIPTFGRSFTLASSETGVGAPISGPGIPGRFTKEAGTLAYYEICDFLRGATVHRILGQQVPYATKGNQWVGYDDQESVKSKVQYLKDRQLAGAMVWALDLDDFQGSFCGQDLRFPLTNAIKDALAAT
Chain of CHI3L1/galectin-3 interaction (hCHI3L1-His with galectin-3-GST) (P17931 2-250 partner): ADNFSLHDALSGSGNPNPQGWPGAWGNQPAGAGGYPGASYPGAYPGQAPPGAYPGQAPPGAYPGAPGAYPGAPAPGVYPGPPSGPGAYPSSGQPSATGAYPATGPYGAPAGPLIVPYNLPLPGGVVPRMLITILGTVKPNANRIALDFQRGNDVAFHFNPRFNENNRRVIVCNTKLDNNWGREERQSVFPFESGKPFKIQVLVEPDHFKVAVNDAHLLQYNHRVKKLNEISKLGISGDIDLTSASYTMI
Chain of CHI3L1 (hCHI3L1-His) (P36222 22-383): as the sequence (P36222 22-383) above

The compound `Cc1c(NC(=O)Cn2cnc3sccc3c2=O)cnn1C1CCCC1` [1-7] had an IC50 in test [1] of 15.4 ± 4.7 µM. Moreover, the dissociation constant (Kd) in test [2] worked out at 7.4 ± 0.78 µM.
The like results for `CC1Cc2ccccc2CN1C(=O)NCc1cc(=O)n2ccccc2n1` (stereo not shown) [1-4] were, in that order, 23.5 ± 2 µM and 10.4 ± 1 µM.

The term IC50 denotes the concentration that gives 50% inhibition. What is called Kd is the concentration at which binding is half-saturated.
